For one experiment, the target named is T1, ITK (Homo sapiens, UniProt Q08881).
T1 sequence (Q08881 1-620): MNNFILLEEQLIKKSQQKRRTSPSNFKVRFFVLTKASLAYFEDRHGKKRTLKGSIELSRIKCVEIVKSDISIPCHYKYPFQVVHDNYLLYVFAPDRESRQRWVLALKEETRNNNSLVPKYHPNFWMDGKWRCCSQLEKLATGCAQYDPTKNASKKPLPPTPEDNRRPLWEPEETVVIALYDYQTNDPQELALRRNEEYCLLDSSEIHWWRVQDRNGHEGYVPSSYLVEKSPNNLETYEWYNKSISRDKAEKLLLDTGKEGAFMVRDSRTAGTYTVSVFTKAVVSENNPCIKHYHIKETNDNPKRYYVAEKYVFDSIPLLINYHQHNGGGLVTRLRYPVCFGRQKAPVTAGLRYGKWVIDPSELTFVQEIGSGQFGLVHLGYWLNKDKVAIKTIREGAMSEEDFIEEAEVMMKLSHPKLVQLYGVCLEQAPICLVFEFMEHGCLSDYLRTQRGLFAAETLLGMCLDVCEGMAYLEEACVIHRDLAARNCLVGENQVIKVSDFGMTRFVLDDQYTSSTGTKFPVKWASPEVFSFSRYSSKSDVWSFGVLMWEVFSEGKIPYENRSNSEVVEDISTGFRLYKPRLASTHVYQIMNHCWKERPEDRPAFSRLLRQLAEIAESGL
Briefly: Omnia assay for potency against ITK. Format: biochemical. Particulars: read-out: ITK inhibition. From the text: (§1) The protocol below describes continuous-read kinase assays to measure inherent potency of compounds against active forms of EGFR (WT) and EGFR (T790M/L858R) enzymes. The mechanics of the assay platform are best described by the vendor (Invitrogen, Carlsbad, Calif.) on their website at the following URL: http://www.invitrogen.com/content.cfm?pageid=11338 or http://www.invitrogen.com/site/us/en/home/Products-and-Services/Applications/Drug-Discovery/Target-and-Lead-Identification-and-Validation/KinaseBiology/KB-Misc/Biochemical-Assays/Omnia-Kinase-Assays.html.
(§2) Briefly, 10× stocks of EGFR-WT (PV3872) from Invitrogen and EGFR-T790M/L858R (40350) from BPS Bioscience, San Diego, Calif., 1.13×ATP (AS001A) and appropriate Tyr-Sox conjugated peptide substrates (KCZI001) were prepared in 1× kinase reaction buffer consisting of 20 mM Tris, pH 7.5, 5 mM MgCl2, 1 mM EGTA, 5 mM β-glycerophosphate, 5% glycerol (10× stock, KB002A) and 0.2 mM DTT (DS001A). 5 μL of each enzyme were pre-incubated in a Corning (#3574) 384-well, white, non-binding surface microtiter plate (Corning, NY) for 30 min. at 27° C. with a 0.5 μL volume of 50% DMSO and serially diluted compounds prepared in 50% DMSO. Kinase reactions were started with the addition of 45 μL of the ATP/Tyr-Sox peptide substrate mix and monitored every 30-90 seconds for 60 minutes at λex360/λem485 in a Synergy^4 plate reader from BioTek (Winooski, Vt.). At the conclusion of each assay, progress curves from each well were examined for linear reaction kinetics and fit statistics (R^2, 95% confidence interval, absolute sum of squares). Initial velocity (0 minutes to ˜30 minutes) from each reaction was determined from the slope of a plot of relative fluorescence units vs time (minutes) and then plotted against inhibitor concentration to estimate IC50 from log [Inhibitor] vs Response, Variable Slope model in GraphPad Prism from GraphPad Software (San Diego, Calif.).
This example describes continuous-read kinase assays to measure inherent potency of compound against active forms of ITK enzymes as described in Example 10 above except that the modified ITK-optimized reagent conditions are: • [ITK]=10 nM, [ATP]=25 μM, [Y6-Sox]=10 μM (ATP KMapp=33 μM).

The target in a further experiment is T2, EGFR (WT) (Homo sapiens, UniProt P00533).
T2 construct: purchased Invitrogen PV3872
T2 sequence (P00533 25-1210): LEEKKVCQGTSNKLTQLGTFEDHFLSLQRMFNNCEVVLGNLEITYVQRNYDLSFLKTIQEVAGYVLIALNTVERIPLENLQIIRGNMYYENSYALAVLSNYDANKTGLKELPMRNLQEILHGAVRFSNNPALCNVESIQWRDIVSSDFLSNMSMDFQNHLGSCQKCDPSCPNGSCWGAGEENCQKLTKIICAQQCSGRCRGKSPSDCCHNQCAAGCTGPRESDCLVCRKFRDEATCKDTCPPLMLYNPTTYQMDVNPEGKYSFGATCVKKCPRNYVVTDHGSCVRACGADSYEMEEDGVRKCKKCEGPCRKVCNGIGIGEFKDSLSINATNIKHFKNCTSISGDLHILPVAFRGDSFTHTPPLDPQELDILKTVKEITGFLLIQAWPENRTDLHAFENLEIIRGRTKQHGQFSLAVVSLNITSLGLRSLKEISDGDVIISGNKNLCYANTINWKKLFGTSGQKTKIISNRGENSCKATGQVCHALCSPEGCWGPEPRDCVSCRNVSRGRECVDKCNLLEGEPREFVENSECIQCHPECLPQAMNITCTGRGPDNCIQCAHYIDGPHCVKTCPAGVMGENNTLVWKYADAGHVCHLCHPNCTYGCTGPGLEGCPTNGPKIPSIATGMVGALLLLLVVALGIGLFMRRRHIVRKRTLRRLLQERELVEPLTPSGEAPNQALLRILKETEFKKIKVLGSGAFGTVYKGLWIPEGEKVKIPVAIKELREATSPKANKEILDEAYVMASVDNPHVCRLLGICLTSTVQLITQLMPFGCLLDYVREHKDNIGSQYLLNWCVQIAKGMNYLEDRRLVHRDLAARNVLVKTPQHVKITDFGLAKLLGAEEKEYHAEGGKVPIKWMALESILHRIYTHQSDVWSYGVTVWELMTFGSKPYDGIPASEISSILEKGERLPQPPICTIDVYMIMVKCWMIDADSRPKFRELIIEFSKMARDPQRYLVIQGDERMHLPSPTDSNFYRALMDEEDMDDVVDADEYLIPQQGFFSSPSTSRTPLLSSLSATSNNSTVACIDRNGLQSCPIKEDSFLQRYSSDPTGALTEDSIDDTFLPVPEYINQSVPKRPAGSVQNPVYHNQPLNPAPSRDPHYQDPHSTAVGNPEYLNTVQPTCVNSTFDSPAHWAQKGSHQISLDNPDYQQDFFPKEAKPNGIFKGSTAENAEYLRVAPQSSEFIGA
Briefly: Omnia continuous-read kinase assay, EGFR (WT). Format: biochemical. Particulars: read-out: EGFR inhibtion.
Source text: as §1, §2
(§3) The EGFR-WT- and EGFR T790M/L858R-modified optimized reagent conditions are: • [EGFR-WT]=5 nM, [ATP]=[…], [Y12-Sox]=[…]; and [EGFR-T790M/L858R]=3 nM, [ATP]=[…], [Y12-Sox]=[…].

The next experiment deals with BTK (Homo sapiens, UniProt Q06187). Briefly: Omnia assay for potency against BTK. Format: biochemical. The conditions noted are these: read-out: BTK Inhibition.
Sequence of BTK (Q06187 whole entry): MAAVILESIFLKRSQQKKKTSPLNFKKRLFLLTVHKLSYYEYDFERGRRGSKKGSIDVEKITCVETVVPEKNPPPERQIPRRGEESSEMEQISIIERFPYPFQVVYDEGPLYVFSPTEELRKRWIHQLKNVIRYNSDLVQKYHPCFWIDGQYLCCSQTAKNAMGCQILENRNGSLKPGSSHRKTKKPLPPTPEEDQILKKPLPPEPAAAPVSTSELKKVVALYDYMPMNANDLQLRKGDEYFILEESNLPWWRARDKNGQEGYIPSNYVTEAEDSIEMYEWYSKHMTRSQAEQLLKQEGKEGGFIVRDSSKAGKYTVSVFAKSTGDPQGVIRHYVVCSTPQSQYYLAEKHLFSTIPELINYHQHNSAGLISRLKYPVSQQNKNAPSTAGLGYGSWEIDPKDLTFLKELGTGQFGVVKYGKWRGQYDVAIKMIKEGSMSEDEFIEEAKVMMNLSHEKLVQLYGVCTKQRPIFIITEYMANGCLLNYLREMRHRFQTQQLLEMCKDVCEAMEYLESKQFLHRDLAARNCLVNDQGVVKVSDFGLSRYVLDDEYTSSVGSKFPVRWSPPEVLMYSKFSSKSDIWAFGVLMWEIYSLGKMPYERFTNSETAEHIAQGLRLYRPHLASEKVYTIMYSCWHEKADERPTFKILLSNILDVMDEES
Source text: as §1, §2
The Omnia Assay Protocol for potency assessment against BTK is performed in a substantially similar manner as that described in Example 25 above except that the modified BTK-optimized reagent conditions are: • [BTK]=5 nM, [ATP]=[…], [Y5-Sox]=[…] (ATP KMapp ˜[…]).

A further experiment has as its target ErbB1 (Homo sapiens, UniProt P00533). Briefly: Z'-LYTE biochemical assay, ErbB1 kinase inhibition. Particulars: @ 1 μM. As to the method:
Compounds of the present invention were assayed as inhibitors of one or more of ErbB1, ErbB2, and/or ErbB4 in a manner substantially similar to the method described by Invitrogen Corp (Invitrogen Corporation, 1600 Faraday Avenue, Carlsbad, Calif., CA; http://www.invitrogen.com/downloads/Z-LYTE_Brochure—1205.pdf) using the Z′-LYTE™ biochemical assay procedure or similar biochemical assay. The Z′-LYTE™ biochemical assay employs a fluorescence-based, coupled-enzyme format and is based on the differential sensitivity of phosphorylated and non-phosphorylated peptides to proteolytic cleavage.

The target in a further experiment is T3, JAK3 (Homo sapiens, UniProt P52333).
T3 sequence (P52333 1-1124): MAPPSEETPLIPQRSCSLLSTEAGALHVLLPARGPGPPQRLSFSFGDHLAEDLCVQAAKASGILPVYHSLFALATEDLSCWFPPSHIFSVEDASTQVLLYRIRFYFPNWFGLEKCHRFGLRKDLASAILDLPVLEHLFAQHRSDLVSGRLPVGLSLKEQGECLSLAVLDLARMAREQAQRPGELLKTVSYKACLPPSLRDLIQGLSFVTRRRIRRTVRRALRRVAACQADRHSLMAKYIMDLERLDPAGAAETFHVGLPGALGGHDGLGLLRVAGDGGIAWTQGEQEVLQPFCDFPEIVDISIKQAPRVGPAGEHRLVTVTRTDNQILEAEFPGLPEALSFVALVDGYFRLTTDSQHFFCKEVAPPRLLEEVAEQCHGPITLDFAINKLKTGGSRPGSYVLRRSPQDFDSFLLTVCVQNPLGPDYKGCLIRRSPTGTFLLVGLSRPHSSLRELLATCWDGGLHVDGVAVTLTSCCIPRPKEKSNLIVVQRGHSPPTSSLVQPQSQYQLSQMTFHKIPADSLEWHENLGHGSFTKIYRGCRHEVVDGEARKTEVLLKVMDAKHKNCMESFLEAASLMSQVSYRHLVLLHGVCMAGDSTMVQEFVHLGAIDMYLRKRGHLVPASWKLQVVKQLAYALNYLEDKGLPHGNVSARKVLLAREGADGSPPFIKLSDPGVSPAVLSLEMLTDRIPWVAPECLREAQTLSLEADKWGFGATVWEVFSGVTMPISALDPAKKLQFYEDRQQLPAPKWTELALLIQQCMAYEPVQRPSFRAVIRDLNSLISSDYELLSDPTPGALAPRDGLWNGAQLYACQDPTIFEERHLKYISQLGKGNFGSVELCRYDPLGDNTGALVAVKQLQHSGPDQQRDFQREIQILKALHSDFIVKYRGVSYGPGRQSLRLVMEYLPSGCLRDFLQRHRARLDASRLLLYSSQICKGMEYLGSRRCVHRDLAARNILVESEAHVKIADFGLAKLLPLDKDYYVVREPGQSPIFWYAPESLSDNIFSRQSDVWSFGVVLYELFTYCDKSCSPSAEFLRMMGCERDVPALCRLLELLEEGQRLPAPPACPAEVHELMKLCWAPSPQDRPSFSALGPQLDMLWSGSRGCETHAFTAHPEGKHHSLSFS
Briefly: Omnia assay for potency against JAK3. Format: biochemical. The conditions noted are these: read-out: JAK3 Inhibition.
Source text: as §1, §2
The Omnia Assay Protocol for potency assessment against JAK3 is performed in a substantially similar manner as that described in Example 25 above except that the modified JAK3-optimized reagent conditions are: • [JAK3]=5 nM, [ATP]=5 μM, [Y12-Sox]=5 μM (ATP KMapp ˜[…]).

The target in the next experiment is T4, EGFR (T790M/L858R) (Homo sapiens, UniProt P00533, L858R/T790M).
T4 construct: purchased BPS Bioscience 40350
T4 sequence (P00533 25-1210 T790M/L858R): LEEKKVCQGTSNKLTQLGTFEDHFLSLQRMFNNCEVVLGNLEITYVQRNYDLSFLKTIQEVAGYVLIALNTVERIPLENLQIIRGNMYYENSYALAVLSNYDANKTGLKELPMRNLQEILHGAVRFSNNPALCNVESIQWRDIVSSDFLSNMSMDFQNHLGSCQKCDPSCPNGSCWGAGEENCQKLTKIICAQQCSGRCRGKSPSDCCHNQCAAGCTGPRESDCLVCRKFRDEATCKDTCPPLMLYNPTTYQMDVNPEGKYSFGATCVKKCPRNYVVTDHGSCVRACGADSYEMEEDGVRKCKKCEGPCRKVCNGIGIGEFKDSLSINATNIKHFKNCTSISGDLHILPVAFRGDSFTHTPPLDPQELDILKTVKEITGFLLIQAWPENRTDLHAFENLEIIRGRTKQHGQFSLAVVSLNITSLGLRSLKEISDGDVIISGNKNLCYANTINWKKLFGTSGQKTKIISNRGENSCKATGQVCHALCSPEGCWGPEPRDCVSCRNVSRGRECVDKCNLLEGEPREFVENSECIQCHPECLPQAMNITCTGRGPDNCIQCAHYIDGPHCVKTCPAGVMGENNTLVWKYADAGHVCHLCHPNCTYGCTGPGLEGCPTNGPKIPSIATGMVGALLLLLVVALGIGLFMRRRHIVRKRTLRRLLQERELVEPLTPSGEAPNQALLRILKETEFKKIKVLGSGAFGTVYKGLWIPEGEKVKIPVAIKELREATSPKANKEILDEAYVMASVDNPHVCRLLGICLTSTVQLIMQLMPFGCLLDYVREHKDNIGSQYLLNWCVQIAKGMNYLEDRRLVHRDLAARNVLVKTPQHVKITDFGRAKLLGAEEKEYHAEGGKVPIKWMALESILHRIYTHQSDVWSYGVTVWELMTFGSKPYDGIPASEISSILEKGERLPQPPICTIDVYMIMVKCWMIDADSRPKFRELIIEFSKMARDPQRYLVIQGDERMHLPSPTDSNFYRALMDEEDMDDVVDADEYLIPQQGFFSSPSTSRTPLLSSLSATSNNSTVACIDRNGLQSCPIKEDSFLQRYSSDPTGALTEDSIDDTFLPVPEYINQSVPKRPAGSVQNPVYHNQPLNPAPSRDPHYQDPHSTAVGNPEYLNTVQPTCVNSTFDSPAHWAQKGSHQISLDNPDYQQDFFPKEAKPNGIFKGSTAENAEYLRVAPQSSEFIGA
Briefly: Omnia continuous-read kinase assay, EGFR (T790M/L858R). Particulars: read-out: EGFR (T790M/L858R) inhibiton. Format: biochemical.
Source text: as §1, §2, §3

The test system of experiment [1] is BTK signaling in Ramos cells. Briefly: BTK Ramos cellular assay (PLCγ2 phosphorylation). Format: cell-based. The conditions noted are these: Homo sapiens; Ramos cells, PLCγ2 phosphorylation; read-out: BTK Inhibition. How it is done:
Compounds 1-13 and (I-52) were assayed in Ramos human Burkitt lymphoma cells. Ramos cells were grown in suspension in T225 flasks, spun down, resuspended in 50 mls serum-free media and incubated for 1 hour. Compound was added to Ramos cells in serum free media to a final concentration of 1, 0.1, 0.01, or 0.001 μM. Ramos cells were incubated with compound for 1 hour, washed again and resuspended in 100 ul serum-free media. Cells were then stimulated with 1 μg of goat F(ab′)2 Anti-Human IgM and incubated on ice for 10 minutes to activate B cell receptor signaling pathways. After 10 minutes, the cells were washed once with PBS and then lysed on ice with Invitrogen Cell Extraction buffer. 16 μg total protein from lysates was loaded on gels and blots were probed for phosphorylation of the BTK substrate PLCγ2. […] Additional dose response inhibition of BTK signaling with I-13 is depicted in FIG. 9.

Each structure is given as a SMILES string.

Sequence of ErbB1 (P00533 25-1210): as the sequence (P00533 25-1210) above

For `CC=CC(=O)c1cccc(Nc2cc(Nc3ccc(Oc4ccccc4)cc3)ncn2)c1` (mixture of isomers) [I-89, (E,Z)-1-(3-(6-(4-phenoxyphenylamino)pyrimidin-4-ylamino)phenyl)but-2-en-1-one], the IC50 was 100 to 1000 nM on ITK, at most 10 nM at EGFR (WT) and at most 10 nM at BTK.
For `C=CS(=O)(=O)Nc1cccc(Nc2cc(Oc3cccc(C(F)(F)F)c3)ncn2)c1` [I-10], the IC50 at ITK is at least 10000 nM; at EGFR (WT) it was at most 10 nM; at JAK3, 100 to 1000 nM; at EGFR (T790M/L858R) it was 100 to 1000 nM; at BTK it was 100 to 1000 nM. Further, the inhibition (commonly the percentage by which the read-out fell short of the control) at 1 µM at ErbB1 is 96%.
On to `C#Cc1cccc(Nc2cc(Nc3cccc(Br)c3)ncn2)c1` [I-12, N^4-(3-Bromophenyl)-N^6-(3-ethynylphenyl)pyrimidine-4,6-diamine], for which, on ErbB1, at 1 µM the inhibition was 82%. Moreover, the IC50 was 10 to 100 nM at EGFR (WT), at least 10000 nM on JAK3, at least 10000 nM at EGFR (T790M/L858R) and at least 10000 nM at BTK.
For the compound `C=CC(=O)Nc1cccc(Nc2cc(N3CCc4ccccc43)ncn2)c1` [I-14], the IC50 on ITK is 1000 to 10000 nM; on EGFR (WT) it was at most 10 nM; on JAK3, at most 10 nM; on EGFR (T790M/L858R) it was 10 to 100 nM; on BTK, 100 to 1000 nM. The compound further gave an inhibition at 1 µM at ErbB1 of 96%.
Consider `C=CC(=O)Nc1cccc(Nc2cc(N(C)c3ccccc3)ncn2)c1` [I-15, N-{3-[6-(N-methyl-N-phenylamino)-pyrimidin-4-ylamino]phenyl}-2 propenamide], for which the IC50 at ITK was 1000 to 10000 nM; on EGFR (WT), at most 10 nM; on JAK3, 10 to 100 nM; on EGFR (T790M/L858R), 10 to 100 nM; on BTK it was 10 to 100 nM. This compound also came in with an inhibition at 1 µM at ErbB1 of 98%.
As for `C=CC(=O)Nc1cccc(Nc2cc(Oc3cccc(C)c3)ncn2)n1` [I-65)], the IC50 in experiment [1] is at most 10 nM.
Same read-out and setting: the value for `C=CC(=O)Nc1cccc(Nc2cc(Oc3ccc(Oc4ccccc4)cc3)ncn2)n1` [I-66)] was at most 10 nM.
`CC#CC(=O)c1cccc(Nc2cc(Nc3ccc(Oc4ccccc4)cc3)ncn2)c1` [I-88, 1-(3-(6-(4-phenoxyphenylamino)pyrimidin-4-ylamino)phenyl)but-2-yn-1-one]: the IC50 was 10 to 100 nM at ITK, at most 10 nM on EGFR (WT) and at most 10 nM at BTK.
`C=CC(=O)Nc1cccc(Nc2cc(Oc3cccc(OC)c3)ncn2)n1` [I-90, N-(6-(6-(3-methoxyphenoxy)pyrimidin-4-ylamino)pyridine-2-yl)acrylamide]: the results for the IC50 on ITK, on EGFR (WT) and on BTK were 100 to 1000 nM, at most 10 nM and at most 10 nM, respectively.
As for `COc1ccc(NC(=O)/C=C/CN(C)CCCCNC(=O)OC(C)(C)C)cc1Nc1cc(Nc2ccc(F)c(Cl)c2)ncn1` [I-98], the IC50 at ITK was at least 10000 nM; at EGFR (WT) it was at most 10 nM; at BTK, 100 to 1000 nM.
The like results for `C=CC(=O)Nc1cc(Nc2cc(Oc3ccc(Oc4ccccc4)cc3)ncn2)ccc1N1CCOCC1` [I-101, N-(2-morpholino-5-(6-(4-phenoxyphenoxy)pyrimidin-4-ylamino)phenyl)acrylamide] were, in that order, 100 to 1000 nM, at most 10 nM and at most 10 nM.

For the origin of these results see patent US9296704B2, “Substituted pyrimidines as protein kinase inhibitors” (CELGENE AVILOMICS RESEARCH, INC., priority 2007, dated 2016).
